Reference: PMC10382351, “In vivo evaluation of a novel ^18F-labeled PET radioligand for translocator protein 18 kDa (TSPO) in monkey brain” (European Journal of Nuclear Medicine and Molecular Imaging, 2023)

Biological target: T1, TSPO (Mus musculus, UniProt P50637)
T1 construct: from tissue; host or cells: living mice, whole-brain ROI, also lung (in vivo PET)
Test: PET study in mice at baseline and after PK11195
Format: in vivo
Method: Imaging experiments were performed on a microPET Focus 120 camera (Siemens Medical Solution; Knoxville, TN). Mice were anesthetized with 1.5% isoflurane in oxygen at a flow rate of 1 L/min. [^18F]SF51 (150 µL; 2.9 ± 0.6 MBq) was injected intravenously through the tail vein of each mouse. Baseline scans were obtained in 12 mice, and another eight mice were imaged after pre-administration of 5 mg/kg PK11195. Scans were acquired for 120 min. Data were histogrammed into 24 time frames (6 × 20, 5 × 60, 4 × 120, 3 × 300, 3 × 600 and 3 × 1200 s) and reconstructed using Fourier rebinning plus a two-dimensional filtered back projection. No scatter or attenuation corrections were applied. PET images were analyzed using PMOD with a single ROI of the whole brain.

[1] = mouse, after blockade with PK11195

Blockade of radioligand in mouse brain (after i.v. 5 mg/kg PK11195): about 80%
Radioactivity in bone (mouse): No significant increase in radioactivity
Uptake in lung (blockable) (mouse): > 2 SUV
Peak brain uptake [1]: ~ 2.5 SUV
Time of peak brain uptake [1]: three
Peak brain uptake (mouse, baseline): ~ 0.8 SUV
Time of peak brain uptake (mouse, baseline): around 15 min
Brain activity after blockade relative to baseline (mouse, last 80 min of scanning, PK11195): 25 % of that at baseline
Compound: CC[C@@H](C)N(C)C(=O)c1nc(-c2cccc([18F])c2)c2ccccc2n1 [[^18F]SF51]
